Data as given in patent US9387221B2, “SDF-1 binding nucleic acids and the use thereof in cancer treatment” (NOXXON Pharma AG, priority 2010, dated 2016).

Key:
CXCR4 [1] = target: CXCR4 (Homo sapiens, UniProt P61073); conditions: MM cells in vivo, CXCR4 blockade; cited from earlier work
CXCR4 [2] = target: CXCR4 (Mus musculus, UniProt P70658); conditions: GBM mouse xenograft, irradiation; cited from earlier work
RPMI-8226 MM cells = experiment: Chemosensitization coculture of RPMI-8226 MM cells with stromal MS-5 cells; type: cell-based; conditions: 100 nM NOX-A12, 1 μM F-ara-A, 40 hours
Procedure: In order to mimic the in vivo interaction of the BM microenvironment with leukemia cells, an in vitro coculture system with murine BM stromal MS-5 cells and the multiple myeloma (abbr. MM) cell line RPMI 8226 was established. Aim of the experiment was to show whether SDF-1 binding […] NOX-A12 sensitizes MM cells in coculture with stromal cells to effects of chemotherapeutic agents. Stromal MS-5 cells secreting SDF 1 were incubated with SDF-1 binding […] NOX-A12 or the non-functional revNOX-A12. The MM cell line RPMI-8226 was added to the confluent stromal cell layer. The cells were then incubated with the chemotherapeutic agent F ara A (Fludarabine) for 40 hours. Cell Viability viability was measured. The murine stromal cell line MS-5 (ACC 441) was purchased from the DSMZ, the Multiple Myeloma cell line RPMI8226 (CCL-155) was purchased from the ATCC. The Multiple Myeloma cell line RPMI8226 was maintained in RPMI medium 1640 GlutaMAX (Invitrogen) supplemented with 10% FBS (Biochrom) and penicillin-streptomycin, the MS-5 cells were cultured in MEM alpha GlutaMAX (Invitrogen) with 10% FBS and penicillin-streptomycin. […] Cell viability and cell number were determined by Flow Cytometry using the Guava EasyCyte 6HT/2L (Millipore).

stromal MS-5 cells = experiment: Viability of stromal MS-5 cells in the coculture; type: cell-based, murine; conditions: data not shown
Procedure: The murine stromal cell line MS-5 (ACC 441) was purchased from the DSMZ, the Multiple Myeloma cell line RPMI8226 (CCL-155) was purchased from the ATCC. The Multiple Myeloma cell line RPMI8226 was maintained in RPMI medium 1640 GlutaMAX (Invitrogen) supplemented with 10% FBS (Biochrom) and penicillin-streptomycin, the MS-5 cells were cultured in MEM alpha GlutaMAX (Invitrogen) with 10% FBS and penicillin-streptomycin. For chemosensitization coculture experiments stromal MS-5 cells were seeded the day before onto 24-well plates (the inner eight wells) at a concentration of 8×10^4/mL/well in MEM alpha GlutaMAX medium (+10% FBS) and incubated at 37° C. in 5% CO2. The confluent stromal cell layer was washed and 0.5 mL RPMI medium 1640 (+1% FBS) was added to the wells. SDF-1 binding […] NOX-A12 or revNOX-A12 was subsequently added to the wells to a final concentration of 100 nM and incubated for four hours. 3.5×10^5 RPMI8226 cells in RPMI medium 1640 (+1% FBS) were added to the stromal cell layer. Four hours later, 1 μ[…] (Sigma Aldrich) was added to the cells when indicated. After 40 hours of incubation the cells were collected in 15 mL tubes, first the supernatant was harvested and then the attached cells were trypsinized including MS-5 cells. […] Cell viability and cell number were determined by Flow Cytometry using the Guava EasyCyte 6HT/2L (Millipore).

CXCR4 (Homo sapiens, UniProt P61073), sequence (P61073 whole entry, species assumed): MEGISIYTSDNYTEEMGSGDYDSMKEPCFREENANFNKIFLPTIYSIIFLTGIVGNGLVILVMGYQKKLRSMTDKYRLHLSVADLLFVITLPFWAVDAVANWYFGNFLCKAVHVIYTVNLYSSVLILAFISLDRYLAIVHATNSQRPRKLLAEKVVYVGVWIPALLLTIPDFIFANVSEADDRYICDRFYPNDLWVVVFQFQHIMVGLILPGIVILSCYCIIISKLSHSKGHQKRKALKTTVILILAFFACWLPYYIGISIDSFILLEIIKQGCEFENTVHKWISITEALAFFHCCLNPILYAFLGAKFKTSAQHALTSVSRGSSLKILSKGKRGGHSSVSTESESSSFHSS
CXCR4 (Mus musculus, UniProt P70658), sequence (P70658 whole entry): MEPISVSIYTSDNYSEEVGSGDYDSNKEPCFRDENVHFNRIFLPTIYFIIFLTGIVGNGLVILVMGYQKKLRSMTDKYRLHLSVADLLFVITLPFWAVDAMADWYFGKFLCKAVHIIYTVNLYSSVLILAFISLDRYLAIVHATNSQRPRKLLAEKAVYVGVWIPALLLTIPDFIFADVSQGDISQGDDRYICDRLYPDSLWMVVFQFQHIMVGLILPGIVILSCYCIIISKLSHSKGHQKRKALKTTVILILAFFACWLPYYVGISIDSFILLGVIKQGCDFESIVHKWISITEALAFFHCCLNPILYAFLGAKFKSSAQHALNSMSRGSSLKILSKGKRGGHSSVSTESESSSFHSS

c1cc(CN2CCCNCCNCCCNCC2)ccc1CN1CCCNCCNCCCNCC1 [AMD3100]
tumor reduction induced by bortezomib (CXCR4 [1]): enhanced tumor reduction induced by bortezomib
influx of BMDCs in the irradiated tumor (CXCR4 [2]): prevented the influx of BMDCs in the irradiated tumor

Nc1nc(F)nc2c1ncn2[C@@H]1O[C@H](CO)[C@@H](O)[C@@H]1O [F-ara-A, Fludarabine, reference compound]
cell viability of RPMI-8226 cells cocultured with stromal MS-5 cells (RPMI-8226 MM cells): no significant effect
viability of stromal MS-5 cells (stromal MS-5 cells): neither affected
